From patent US20220275274A1, “NEUTRAL FLUORESCENT MITOCHONDRIAL MARKER BASED ON NITROGEN-CONTAINING HETEROCYCLE, PREPARATION METHOD AND USE THEREOF” (SOOCHOW UNIVERSITY, priority 2020, published 2022)

Columns and labels:
[1] = ultraviolet absorption and fluorescence emission in chloroform; format: physicochemical; settings: 10 μM; for maximum emission wavelength (fluorescence spectrum): excitation wavelength and slit width per dye
Protocol: The ultraviolet absorption and fluorescence emission of the dyes prepared in the examples and comparative examples (at a concentration of 10 μM) in chloroform were tested. The horizontal ordinate is the wavelength, and the vertical ordinate is the absorbance and fluorescence intensity, respectively.
In the ultraviolet-visible absorption spectrum, dye 1a has the maximum absorption at 378 nm; and in the fluorescence spectrum, dye 1a has the highest fluorescence intensity at 452 nm, where the excitation wavelength is 370 nm, and the slit width is 3 nm/1.5 nm. In the ultraviolet-visible absorption spectrum, dye 1b has a maximum absorption wavelength of 382 nm; and in the fluorescence spectrum, dye 1b has a maximum emission wavelength of 485 nm, where the excitation wavelength is 374 nm, and the slit width is 3 nm/1.5 nm. In the ultraviolet-visible absorption spectrum, dye 1c has a maximum absorption wavelength of 385 nm; and in the fluorescence spectrum, dye 1c has a maximum emission wavelength of 454 nm, where the excitation wavelength is 380 nm, and the slit width is 3 nm/1.5 nm. In the ultraviolet-visible absorption spectrum, dye 2a has the maximum absorption at 364 nm; and in the fluorescence spectrum, dye 2a has the highest fluorescence intensity at 480 nm, where the excitation wavelength is 374 nm, and the slit width is 3 nm/1.5 nm. In the ultraviolet-visible absorption spectrum, dye 2b has a maximum absorption wavelength of 360 nm; and in the fluorescence spectrum, dye 2b has a maximum emission wavelength of 458 nm, where the excitation wavelength is 370 nm, and the slit width is 3 nm/1.5 nm. In the ultraviolet-visible absorption spectrum, dye 2c has a maximum absorption wavelength of 356 nm; and in the fluorescence spectrum, dye 2c has a maximum emission wavelength of 441 nm, where the excitation wavelength is 360 nm, and the slit width is 3 nm/3 nm. In the ultraviolet-visible absorption spectrum, dye 3a has the maximum absorption at 548 nm; and in the fluorescence spectrum, dye 3a has the highest fluorescence intensity at 606 nm, where the excitation wavelength is 560 nm, and the slit width is 1.5 nm/1.5 nm. In the ultraviolet-visible absorption spectrum, dye 3b has a maximum absorption wavelength of 549 nm; and in the fluorescence spectrum, dye 3b has a maximum emission wavelength of 608 nm, where the excitation wavelength is 540 nm, and the slit width is 1.5 nm/1.5 nm. In the ultraviolet-visible absorption spectrum, dye 3c has a maximum absorption wavelength of 554 nm; and in the fluorescence spectrum, dye 3c has a maximum emission wavelength of 611 nm, where the excitation wavelength is 540 nm, and the slit width is 1.5 nm/1.5 nm. In the ultraviolet-visible absorption spectrum, dye 3d has a maximum absorption wavelength of 556 nm; and in the fluorescence spectrum, dye 3d has a maximum emission wavelength of 619 nm, where the excitation wavelength is 570 nm, and the slit width is 1.5 nm/1.5 nm. In the ultraviolet-visible absorption spectrum, dye 4 has a maximum absorption wavelength of 501 nm; and in the fluorescence spectrum, dye 4 has a maximum emission wavelength of 515 nm, where the excitation wavelength is 495 nm, and the slit width is 1.5 nm/1.5 nm. The above UV absorption and fluorescence emission test methods are conventional methods.

[2] = tested on: HeLa cells; experiment: cell imaging, colocalization with red mitochondrial marker Mito Tracker Red CMXRos; format: cell-based; settings: dye 1 μM, vs Mito Tracker Red CMXRos (100 nm); for colocalization coefficient: blue and red channel
Protocol: (§1) Dye 1a was formulated into a mother liquor in DMSO (dimethyl sulfoxide), and then added to a conventional cell culture medium to give a concentration of dye 1a in the cell culture medium of 1 μM. L929 cells and HeLa cells were respectively co-cultured for 10 min in an incubator at saturated humidity, 37° C., and 5% CO2 (the experiment was same below). The existing red mitochondrial marker Mito Tracker® Red CMXRos (100 nm) was added, and the cells were co-incubated for another 10 min, washed three times with a PBS buffer, and imaged under a laser confocal microscope. In the blue channel, light of 405 nm was used for excitation, and a fluorescence signal in the range of 410-500 nm was collected; and in the red channel, light of 561 nm was used for excitation, and a fluorescence signal in the range of 570-750 nm was collected. […] The results are shown in FIG. 14, where (a) and (g) are the bright-field images; (b) and (h) are the cell images with dye 1a; (c) and (i) are the cell images with the red mitochondrial marker; (d) and (j) are overlapped images with blue channel and red channel, (e) and (k) show the fluorescence intensity of the ROI line in the overlapped images; and (f) and (1) show colocalization assays, with a colocalization coefficient of 0.90 (L929) and 0.84 (HeLa) respectively.
(§2) The experiment method with dye 1b, dye 1c, dye 2a, dye 2b, and dye 2c (1 μM) is the same as that with dye 1a above, except that dye 1a is replaced. In FIG. 15, (a) and (g) are the bright-field images; (b) and (h) are the cell images with dye 1b; (c) and (i) are the cell images with the red mitochondrial marker; (d) and (j) are overlapped images with blue channel and red channel, (e) and (k) show the fluorescence intensity of the ROI line in the overlapped images; and (f) and (1) show colocalization assays, with a colocalization coefficient of 0.81 (L929) and 0.83 (HeLa) respectively. In FIG. 16, (a) and (g) are the bright-field images; (b) and (h) are the cell images with dye 1c; (c) and (i) are the cell images with the red mitochondrial marker; (d) and (j) are overlapped images with blue channel and red channel, (e) and (k) show the fluorescence intensity of the ROI line in the overlapped images; and (f) and (1) show a colocalization assay, both having a colocalization coefficient of 0.77. In FIG. 17, (a) and (g) are the bright-field images; (b) and (h) are the cell images with dye 2a; (c) and (i) are the cell images with the red mitochondrial marker; (d) and (j) are overlapped images with blue channel and red channel, (e) and (k) show the fluorescence intensity of the ROI line in the overlapped images; and (f) and (1) show colocalization assays, with a colocalization coefficient of 0.79 (L929) and 0.80 (HeLa) respectively. In FIG. 18, (a) and (g) are the bright-field images; (b) and (h) are the cell images with dye 2b; (c) and (i) are the cell images with the red mitochondrial marker; (d) and (j) are overlapped images with blue channel and red channel, (e) and (k) show the fluorescence intensity of the ROI line in the overlapped images; and (f) and (1) show colocalization assays, with a colocalization coefficient of 0.85 (L929) and 0.79 (HeLa) respectively. In FIG. 19, (a) and (g) are the bright-field images; (b) and (h) are the cell images with dye 2c; (c) and (i) are the cell images with the red mitochondrial marker; (d) and (j) are overlapped images with blue channel and red channel, (e) and (k) show the fluorescence intensity of the ROI line in the overlapped images; and (f) and (1) show colocalization assays, with a colocalization coefficient of 0.82 (L929) and 0.84 (HeLa) respectively.
Dye 4 was formulated into a mother liquor in DMSO, and then added to a conventional cell culture medium to give a concentration of dye 4 in the cell culture medium of 1 μM. HeLa cells were co-cultured for 10 min in an incubator at saturated humidity, 37° C., and 5% CO2. […]

[3] = tested on: L929 cells; experiment: as above; format: cell-based; settings: dye 1 μM; for mitochondria labeling ability (blue mitochondrial marker): L929 (normal) and HeLa (cancer) cells, vs Mito Tracker Red CMXRos; for colocalization coefficient: L929 cells, vs Mito Tracker Red CMXRos (100 nm), blue and red channel
Protocol: as §1, §2

Row | maximum absorption wavelength (ultraviolet-visible absorption spectrum) [1] [nm] | maximum emission wavelength (fluorescence spectrum) [1] [nm] | Structure (SMILES) | colocalization coefficient [2] | mitochondria labeling ability (blue mitochondrial marker) [3] | colocalization coefficient [3] | overlap with the red mitochondrial marker ([2]; green and red channel)
1 | 364 | 480 | CCCCN1C(=O)c2cccc3c(-c4ccc5[nH]ncc5c4)ccc(c23)C1=O [dye 2a] | 0.80 | mitochondria labeling ability in both normal cells and cancer cells | 0.79 | –
2 | 360 | 458 | CCCCN1C(=O)c2cccc3c(-c4cnc5[nH]ccc5c4)ccc(c23)C1=O [dye 2b] | 0.79 | mitochondria labeling ability in both normal cells and cancer cells | 0.85 | –
3 | 356 | 441 | CCCCN1C(=O)c2cccc3c(-c4cnc5[nH]ncc5c4)ccc(c23)C1=O [dye 2c] | 0.84 | mitochondria labeling ability in both normal cells and cancer cells | 0.82 | –

The next lines start with the compound.

Row | Structure (SMILES) | maximum absorption wavelength (ultraviolet-visible absorption spectrum) [1] [nm] | maximum emission wavelength (fluorescence spectrum) [1] [nm] | colocalization coefficient [2] | mitochondria labeling ability (blue mitochondrial marker) [3] | colocalization coefficient [3] | overlap with the red mitochondrial marker ([2]; green and red channel)
4 | CCN(CC)c1ccc2c(C)c(-c3cnc4[nH]ncc4c3)c(=O)oc2c1 [dye 1c] | 385 | 454 | 0.77 | mitochondria labeling ability in both normal cells and cancer cells | 0.77 | –
5 | CCN(CC)c1ccc2c(C)c(-c3ccc4[nH]ncc4c3)c(=O)oc2c1 [dye 1a] | 378 | 452 | 0.84 | mitochondria labeling ability in both normal cells and cancer cells | 0.90 | –
6 | CC1=CC(C)=[N+]2C1=C(c1ccc(-c3ccc4[nH]ncc4c3)cc1)c1c(C)cc(C)n1[B-]2(F)F [dye 4] | 501 | 515 | – | – | – | cannot be overlapped well with the red mitochondrial marker
7 | CCN(CC)c1ccc2c(C)c(-c3cnc4[nH]ccc4c3)c(=O)oc2c1 [dye 1b] | 382 | 485 | 0.83 | mitochondria labeling ability in both normal cells and cancer cells | 0.81 | –
